Test results taken from ChEMBL document CHEMBL1201862, “PubChem BioAssay data set” (2004).
Active and inactive are the calls of the source.

How the values were obtained:
[1] = non-specific 3'UTR reporter inhibition in Clone20-Shn3RL – cell-based, Renilla luciferase, cherry-picked, counter-screen for Shn3 inhibitor project, dose response (AID 624133); assay type: functional
[2] = reduction of Shn3 3'UTR-driven luciferase in osteoblasts – cell-based, Clone20 osteoblasts, firefly luciferase, cherry-picked, dose response (AID 624132); assay type: functional;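 also: firefly luciferase luminescence from reporter carrying the Shn3 3'UTR in osteoblasts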
[3] = loss of viability in HepG2 cells – cell-based, CellTiter-Glo, cherry-picked, cytotoxicity control for Shn3 inhibitor project, dose response (AID 624134); assay type: functional
[4] = blockers of HIV-1 envelope-mediated cell-cell fusion – cherry-pick, dose response (AID 652057); assay type: functional, cell-based
[5] = blockers of HIV-1 ZM109 envelope-driven cell-cell fusion – HeLa effector, CEM target cells, luciferase, cherry-pick, dose response (AID 652058); assay type: functional, cell-based;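 also: luciferase signal from HIV-1 Env mediated cell-cell fusion of effector and target cells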
[6] = HIV-1 AD8 envelope cell-cell fusion blockers – cherry-pick, dose response (AID 652062); assay type: functional, cell-based;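 also: luciferase signal from cell-cell fusion driven by HIV-1 clade B AD8 Env; potency is for inhibitors of fusion seen as a drop in luminescence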
[7] = off-target signal loss in HeLa-CEM21 co-culture – HeLa F-luc CTL cells, cherry-picked, counter-screen for HIV-1 Env fusion inhibitor project, dose response (AID 652040); assay type: functional, cell-based;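 also: potency for signal decrease marking cytotoxic or nonspecific inhibition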
Genome polyprotein = Genome polyprotein (dengue virus type 2, UniProt P29990); experiment: flavivirus cap methylation enzyme inhibition – biochemical, confirmation dose response, primary screen (AID 588689); assay type: functional
Chain of Genome polyprotein (P29990 2492-3391 limits assumed): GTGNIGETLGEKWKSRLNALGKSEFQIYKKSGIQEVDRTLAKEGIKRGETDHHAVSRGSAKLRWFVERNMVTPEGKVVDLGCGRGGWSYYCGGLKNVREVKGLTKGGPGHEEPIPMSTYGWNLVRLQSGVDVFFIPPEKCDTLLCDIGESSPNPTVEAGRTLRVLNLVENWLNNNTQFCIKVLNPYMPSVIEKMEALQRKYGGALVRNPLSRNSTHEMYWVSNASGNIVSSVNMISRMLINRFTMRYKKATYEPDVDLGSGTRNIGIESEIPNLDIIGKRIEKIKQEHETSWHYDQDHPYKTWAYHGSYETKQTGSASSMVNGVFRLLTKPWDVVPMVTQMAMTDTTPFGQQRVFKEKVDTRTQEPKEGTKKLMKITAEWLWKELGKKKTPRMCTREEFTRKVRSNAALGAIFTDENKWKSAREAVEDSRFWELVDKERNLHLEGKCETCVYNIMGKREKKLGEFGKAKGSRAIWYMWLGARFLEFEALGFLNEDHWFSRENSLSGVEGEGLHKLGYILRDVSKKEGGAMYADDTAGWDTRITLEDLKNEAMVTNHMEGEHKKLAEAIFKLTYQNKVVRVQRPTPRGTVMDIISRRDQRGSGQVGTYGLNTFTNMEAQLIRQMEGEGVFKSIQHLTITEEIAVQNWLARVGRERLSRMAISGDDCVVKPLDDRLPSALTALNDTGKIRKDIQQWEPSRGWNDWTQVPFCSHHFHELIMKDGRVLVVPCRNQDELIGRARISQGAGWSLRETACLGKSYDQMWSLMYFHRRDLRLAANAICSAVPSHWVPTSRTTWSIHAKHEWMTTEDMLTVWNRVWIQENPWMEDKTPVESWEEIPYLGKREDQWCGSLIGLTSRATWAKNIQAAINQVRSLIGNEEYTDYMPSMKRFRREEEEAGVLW

Protein skinhead-1 = molecular target: T1, Protein skinhead-1 (Caenorhabditis elegans, UniProt P34707); assay type: functional
T1 sequence (P34707 whole entry): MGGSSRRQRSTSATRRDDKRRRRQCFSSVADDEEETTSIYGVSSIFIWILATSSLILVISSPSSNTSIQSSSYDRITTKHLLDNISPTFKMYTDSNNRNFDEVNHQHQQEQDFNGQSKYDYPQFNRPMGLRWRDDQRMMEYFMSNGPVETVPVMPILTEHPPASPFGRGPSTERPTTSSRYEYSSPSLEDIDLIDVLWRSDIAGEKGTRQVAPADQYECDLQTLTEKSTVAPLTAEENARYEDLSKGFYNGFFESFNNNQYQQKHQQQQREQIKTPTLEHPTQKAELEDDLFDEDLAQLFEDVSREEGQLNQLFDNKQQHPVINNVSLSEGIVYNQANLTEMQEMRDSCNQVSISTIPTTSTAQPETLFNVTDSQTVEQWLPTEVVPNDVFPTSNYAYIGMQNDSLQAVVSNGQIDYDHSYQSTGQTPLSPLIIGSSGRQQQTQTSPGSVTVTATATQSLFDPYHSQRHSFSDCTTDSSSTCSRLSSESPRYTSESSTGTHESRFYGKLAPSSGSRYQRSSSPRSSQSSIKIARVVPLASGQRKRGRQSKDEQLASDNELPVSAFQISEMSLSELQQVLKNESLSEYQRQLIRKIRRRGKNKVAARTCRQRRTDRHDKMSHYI

[8] = viability of HCT116 lacking mutant beta-catenin – cell-based, human colon tumor, dose response (AID 1045); assay type: functional;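 also: HCT116 colon tumor cells with beta catenin knocked out; cells exposed to compound for 60 hours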
[9] = viability of PTEN-deleted HCT116 cells – cell-based, HCT116 PTEN knockout, dose response (AID 1047); assay type: functional;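 also: HCT116 colon tumor cells with PTEN knocked out; cells exposed to compound for 60 hours before readout; potency for loss of cell viability measured by luminescence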
[10] = test system: Streptococcus sp. 'group A'; experiment: Streptococcus pyogenes SK(-)GAS viability under kanamycin – luminescence, BacTiterGlo, confirmation, counter-screen for streptokinase expression inhibitor project, dose response (AID 1900); assay type: functional, organism-based
Streptococcus = experiment: GAS UMAA2166 growth inhibition – luminescence, BacTiterGlo, counter-screen for streptokinase expression inhibitor project, dose response (AID 1915); assay type: functional, organism-based;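 also: potency for reduction of bacterial viability or growth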
Streptokinase A = molecular target: T2, Streptokinase A (Streptococcus pyogenes serotype M1, UniProt P10520); experiment: viability-normalized secreted streptokinase activity reduction – plasminogen activation absorbance, OD405, dose response (AID 1914); assay type: functional, Streptococcus pyogenes M1 GAS;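 also: secreted streptokinase activity via plasminogen activation per viability signal from cell pellet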
T2 sequence (P10520 whole entry): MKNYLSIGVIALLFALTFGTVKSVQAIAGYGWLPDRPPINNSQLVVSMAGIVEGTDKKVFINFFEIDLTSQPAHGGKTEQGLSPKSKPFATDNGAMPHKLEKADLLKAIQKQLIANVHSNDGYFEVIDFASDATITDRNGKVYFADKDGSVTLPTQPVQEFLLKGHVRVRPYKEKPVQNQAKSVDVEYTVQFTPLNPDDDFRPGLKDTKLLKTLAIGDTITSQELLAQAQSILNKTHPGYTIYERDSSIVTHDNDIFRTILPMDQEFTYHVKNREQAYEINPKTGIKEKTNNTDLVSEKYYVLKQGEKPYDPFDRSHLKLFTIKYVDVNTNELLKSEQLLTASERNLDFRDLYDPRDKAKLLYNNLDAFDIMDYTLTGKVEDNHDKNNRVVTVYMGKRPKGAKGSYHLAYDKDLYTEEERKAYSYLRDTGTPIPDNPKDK

Fatty acid synthase [11] = molecular target: T3, Fatty acid synthase (Homo sapiens, UniProt P49327); experiment: inhibition of human FAS-TE enzyme activity – biochemical, endpoint fluorescence intensity, uHTS hits, dose response (AID 624327); assay type: functional;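 also: fluorescence from hydrolysis of an O-methyl fluorescein acyl ester substrate by the enzyme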
T3 sequence (P49327 whole entry): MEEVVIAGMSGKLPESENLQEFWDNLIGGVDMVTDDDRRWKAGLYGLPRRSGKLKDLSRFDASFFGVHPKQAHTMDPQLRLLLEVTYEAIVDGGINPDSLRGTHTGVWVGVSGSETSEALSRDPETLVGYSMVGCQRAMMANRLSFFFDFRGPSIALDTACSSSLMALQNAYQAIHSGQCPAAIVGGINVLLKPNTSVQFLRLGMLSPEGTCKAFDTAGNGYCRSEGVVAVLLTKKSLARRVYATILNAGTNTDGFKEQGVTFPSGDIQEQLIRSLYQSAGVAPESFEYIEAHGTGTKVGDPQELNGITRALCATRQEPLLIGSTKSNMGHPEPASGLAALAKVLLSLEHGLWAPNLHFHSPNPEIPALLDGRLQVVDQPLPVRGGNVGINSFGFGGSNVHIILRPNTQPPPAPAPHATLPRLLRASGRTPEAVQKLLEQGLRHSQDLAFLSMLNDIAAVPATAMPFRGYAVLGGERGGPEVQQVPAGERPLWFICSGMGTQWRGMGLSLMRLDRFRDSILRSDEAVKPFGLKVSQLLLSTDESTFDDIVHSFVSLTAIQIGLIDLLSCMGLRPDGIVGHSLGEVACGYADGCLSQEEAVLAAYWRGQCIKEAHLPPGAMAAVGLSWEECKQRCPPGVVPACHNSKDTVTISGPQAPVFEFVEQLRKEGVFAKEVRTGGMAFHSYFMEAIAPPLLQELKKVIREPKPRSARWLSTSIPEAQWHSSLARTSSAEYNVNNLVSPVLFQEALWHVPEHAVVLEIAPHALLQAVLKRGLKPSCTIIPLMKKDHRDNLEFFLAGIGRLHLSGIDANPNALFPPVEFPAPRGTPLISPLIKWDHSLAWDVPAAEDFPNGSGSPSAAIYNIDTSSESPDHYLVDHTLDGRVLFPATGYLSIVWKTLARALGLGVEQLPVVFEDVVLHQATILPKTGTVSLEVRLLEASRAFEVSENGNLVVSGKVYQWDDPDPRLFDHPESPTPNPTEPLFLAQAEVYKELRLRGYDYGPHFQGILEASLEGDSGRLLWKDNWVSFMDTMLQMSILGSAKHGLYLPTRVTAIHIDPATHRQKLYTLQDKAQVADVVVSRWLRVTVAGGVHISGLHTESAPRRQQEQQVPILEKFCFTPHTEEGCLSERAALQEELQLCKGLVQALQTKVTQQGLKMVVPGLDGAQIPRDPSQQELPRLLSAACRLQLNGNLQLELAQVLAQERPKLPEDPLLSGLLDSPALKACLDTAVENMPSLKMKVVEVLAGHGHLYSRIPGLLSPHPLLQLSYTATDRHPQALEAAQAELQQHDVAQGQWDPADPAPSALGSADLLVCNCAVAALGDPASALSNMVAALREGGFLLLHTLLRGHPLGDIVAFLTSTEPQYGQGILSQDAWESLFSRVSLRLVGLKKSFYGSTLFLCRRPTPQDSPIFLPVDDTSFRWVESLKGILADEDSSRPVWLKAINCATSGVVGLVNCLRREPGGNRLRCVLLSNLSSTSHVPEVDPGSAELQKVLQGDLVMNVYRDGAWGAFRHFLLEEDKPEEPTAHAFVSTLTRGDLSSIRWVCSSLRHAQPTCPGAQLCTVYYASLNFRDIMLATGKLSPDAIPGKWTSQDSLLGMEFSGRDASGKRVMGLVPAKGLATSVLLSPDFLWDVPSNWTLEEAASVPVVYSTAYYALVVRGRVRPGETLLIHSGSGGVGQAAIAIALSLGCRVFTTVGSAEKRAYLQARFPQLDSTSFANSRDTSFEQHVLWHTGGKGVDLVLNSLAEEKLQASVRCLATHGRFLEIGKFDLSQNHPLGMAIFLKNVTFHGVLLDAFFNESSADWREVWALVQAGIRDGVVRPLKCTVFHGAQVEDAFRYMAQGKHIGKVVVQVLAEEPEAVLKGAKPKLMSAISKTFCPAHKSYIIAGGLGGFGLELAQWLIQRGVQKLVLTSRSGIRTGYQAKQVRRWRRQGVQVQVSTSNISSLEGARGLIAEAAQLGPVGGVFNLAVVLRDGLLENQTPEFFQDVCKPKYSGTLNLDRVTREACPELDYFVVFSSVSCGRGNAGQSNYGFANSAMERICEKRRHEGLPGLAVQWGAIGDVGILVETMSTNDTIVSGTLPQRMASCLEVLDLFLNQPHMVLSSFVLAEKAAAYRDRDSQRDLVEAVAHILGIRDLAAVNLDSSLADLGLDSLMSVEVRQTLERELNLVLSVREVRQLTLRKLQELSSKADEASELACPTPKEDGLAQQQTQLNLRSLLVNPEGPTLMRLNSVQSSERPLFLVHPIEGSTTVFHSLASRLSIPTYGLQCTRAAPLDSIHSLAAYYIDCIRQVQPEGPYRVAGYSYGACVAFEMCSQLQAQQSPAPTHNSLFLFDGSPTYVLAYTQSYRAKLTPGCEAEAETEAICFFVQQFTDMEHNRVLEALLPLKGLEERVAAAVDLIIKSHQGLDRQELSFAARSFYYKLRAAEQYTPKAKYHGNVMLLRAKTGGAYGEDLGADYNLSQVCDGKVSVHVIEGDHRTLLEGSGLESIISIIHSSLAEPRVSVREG

Fatty acid synthase [12] = molecular target: T3, Fatty acid synthase; experiment: inhibition of human FAS-TE enzyme activity – biochemical, kinetic fluorescence intensity, dose response (AID 624326); assay type: functional;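 also: rate of fluorescence rise from hydrolysis of a fluorogenic O-methyl fluorescein ester substrate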

With `C=C1C(=O)OC2C=C(CO)C3OC3C3OC3(C)CC(OC(=O)/C(=C/C)COC(C)=O)C12` (centres undefined) the AC50 [1] was 9.84 µM (active), the AC50 [2] was 5.89 µM (active) and the AC50 [3] was 32.2 µM (active).
With `COC(=O)[C@]1(C)N[C@H](CN(C)C(=O)Nc2ccc(Cl)cc2)[C@@H]2C(=O)N(Cc3ccccc3)C(=O)[C@@H]21` the AC50 [4] was 0.659 µM (active), the AC50 [5] was 1.12 µM (active) and the AC50 [6] was 1.3 µM (active). The AC50 [7] was 1.5 µM (active).
In the case of `Cc1c(Br)c(O)c(Br)c2sc(=O)oc12`, the IC50 (Genome polyprotein) is reported as 62.3 µM (active).
With `COc1ccccc1N(C)S(=O)(=O)c1ccc(Cl)c(C(=O)NCC2(N(C)C)CCCCC2)c1` the AC50 [4] was 2.92 µM (active), the AC50 [5] was 3.96 µM (active) and the AC50 [6] was 3.32 µM (active). For the same molecule, the AC50 [7] was 5.54 µM (active).
In the case of `CC[C@@]1(C(=O)OC)N[C@H](CN(C)C(=O)Nc2ccc(OC)cc2)[C@@H]2C(=O)N(Cc3ccccc3)C(=O)[C@@H]21`, the AC50 [4] is reported as 1.1 µM (active), the AC50 [5] is reported as 1.71 µM (active) and the AC50 [6] is reported as 1.32 µM (active). The AC50 [7] was 1.46 µM (active).
For `O=C(NC(=S)Nc1ccc(CN2CCCCC2)cc1)c1cc2ccccc2o1`, the IC50 (Protein skinhead-1) was 32.2 µM (active).
With `O=C(Oc1ccc(/N=C2\C(=O)c3ccccc3C(O)=C2Cl)cc1)c1ccc([N+](=O)[O-])cc1` the EC50 [8] was 4.97 µM (active), the EC50 [9] was 9.05 µM (active) and the EC50 [10] was 20.7 µM (active). For the same molecule, the EC50 (Streptococcus) was 44.1 µM (active) and the EC50 (Streptokinase A) was > 150 µM (not active).
In the case of `CCC(C)(C)c1nnc(NC(=O)CCC2CCCCC2)s1`, the IC50 (Protein skinhead-1) is reported as > 100 µM (inactive).
In the case of `Cc1cc(=O)c2c(o1)C(=O)c1occc1C2=O`, the IC50 (Genome polyprotein) is reported as 62.4 µM (active).
In the case of `COc1cc([N+](=O)[O-])cc(/C=N/NC(=O)c2cccnc2)c1O`, the EC50 [10] is reported as 2.99 µM (active), the IC50 (Fatty acid synthase [11]) is reported as 9.23 µM (active) and the EC50 (Streptococcus) is reported as 1.76 µM (active). The IC50 (Fatty acid synthase [12]) was 9.94 µM (active).
For `CCOc1ccccc1C(=O)Nc1ccc(-n2nncc2C(C)(C)C)cc1`, the IC50 (Protein skinhead-1) was > 100 µM (inactive).
With `O=C(Oc1cccc(N2C(=O)C3C4c5ccccc5C(c5ccccc54)C3C2=O)c1)c1ccco1` (centres undefined) the IC50 (Fatty acid synthase [11]) was 33.4 µM (inactive) and the IC50 (Fatty acid synthase [12]) was 28.5 µM (inactive).
With `CC(=O)/N=C1\SC2CS(=O)(=O)CC2N1c1cccc(Cl)c1Cl` (centres undefined) the IC50 (Protein skinhead-1) was > 100 µM (inactive).
In the case of `COc1ccc(-c2csc3ncnc(Oc4ccc5c(C)cc(=O)oc5c4)c23)cc1`, the EC50 [8] is reported as 47.3 µM (active) and the EC50 [9] is reported as 24.8 µM (active).
